# Values joined by “and” are separate entries in the source; they are usually repeats but may differ in a detail not shown here. Equal entries are not always repeated.
# How the values were obtained:
# [1] = test system: Plasmodium falciparum strain 3D7; assay: Parasite growth inhibition (drug susceptibility test, pLDH readout); type: cell-based
# Description: (§1) The cultivation of P. falciparum was conducted according to Trager’s method with some modification. Precisely, parasites were kept in culture flasks with RPMI1640 medium supplemented with 10% human plasma and 2% fresh human erythrocytes and incubated at 37 °C with the gas condition of 5% CO2 and 5% O2. The parasitemia (percentage of infected erythrocytes to total erythrocytes) were kept within 0.25–10%. Culture medium was replaced, and fresh erythrocytes were supplied every 2–3 days. Drug susceptibility test was conducted according to Desjardins’s method[18] with some modification. […] […] The plates were kept at 37 °C with the gas condition of 5% CO2 and 5% O2 for 72 h and then parasite growth was quantified with Makler’s method to detect plasmdoial lactate dehydrogenase[19] with some modification. Precisely, culture plates were kept in freezer overnight and then thawed at 37 °C to disrupt the erythrocytes and parasite cells. In the new 96-well titer plates, 100 μl of enzyme reaction solution (110 mM Li-lactate, 0.5 mM acetylpyridine-adenine dinucleotide, 50 mM Tris (pH 7.5), 10 mM EDTA, 50 mM KCl, and 15 g l^−1 PEG6000) and 20 µl of freeze-thaw culture were mixed in each well and then kept at room temperature for 30 min. The detection solution was prepared by mixing equal volume of 2 mg ml^−1 nitro blue tetrazolium and 0.1 mg ml^−1 phenazine ethosulfate and 20 µl of the solution was added to each well.
# [2] = test system: Plasmodium falciparum strain K1; assay: microbe, parasite or virus in culture; type: cell-based
# Description: as §1
# PvcFRS = target: T1, PvcFRS (Plasmodium vivax, UniProt A5K9S0); assay: Incubation of PvcFRS with BRD1389 and ATP analogue AMPPNP; type: binding; details: PvcFRS with high concentrations of both BRD1389 and AMPPNP
# T1 construct: Full-length PvcFRS was also purified according to the same protocol; vector-encoded tag of pETM11 (own knowledge: N-terminal His6 with TEV site); Ni-NTA purification; made in house; host or cells: E. coli strain B834
# Description: The diarylacetylene moiety of BRD1389 that occupies the L-Phe site is recognized via a bed of β-strand residues Ala541-Trp542-Gly543-Leu544 (Fig. 3b), while its edge phenyl ring is covered by Tyr497 where it provides an aromatic T-shaped π…π interaction at a distance of ~4.2 Å (Fig. 3b). In addition, the diarylacetylene moiety is surrounded by hydrophobic elements of Asn519, Gln457, and Glu459 (Fig. 3b). The urea moiety of BRD1389 is buried in a groove that is composed of Gly506, His508, Glu510, Lys512–513, Leu515, Ile552 and Pro549 (Figs. 3b, e and 4c). The urea/groove interactions are mainly stabilized by hydrophobic contacts, particularly from Pro549 and His508 while residues Val517, Ile483 and Pro549 provide sandwich support to the cyclopropoxy moiety (Figs. 3b and 4c). The urea component of BRD1389 forms hydrogen bonding interactions with main-chain N-atom of Ser545 (Fig. 3a, b). The above sets of extensive interactions position BRD1389 in an ‘L’ shaped conformation wherein its methoxy methyl group is surrounded by socket residues Arg443, Glu445, His451, and Phe455. […] This similarity highlights the importance of the three-dimensional shape and rigidity of the diazabicyclodecane scaffold in pre-orienting the molecular appendages for optimal target engagement. […]
# T1 sequence (A5K464 whole entry): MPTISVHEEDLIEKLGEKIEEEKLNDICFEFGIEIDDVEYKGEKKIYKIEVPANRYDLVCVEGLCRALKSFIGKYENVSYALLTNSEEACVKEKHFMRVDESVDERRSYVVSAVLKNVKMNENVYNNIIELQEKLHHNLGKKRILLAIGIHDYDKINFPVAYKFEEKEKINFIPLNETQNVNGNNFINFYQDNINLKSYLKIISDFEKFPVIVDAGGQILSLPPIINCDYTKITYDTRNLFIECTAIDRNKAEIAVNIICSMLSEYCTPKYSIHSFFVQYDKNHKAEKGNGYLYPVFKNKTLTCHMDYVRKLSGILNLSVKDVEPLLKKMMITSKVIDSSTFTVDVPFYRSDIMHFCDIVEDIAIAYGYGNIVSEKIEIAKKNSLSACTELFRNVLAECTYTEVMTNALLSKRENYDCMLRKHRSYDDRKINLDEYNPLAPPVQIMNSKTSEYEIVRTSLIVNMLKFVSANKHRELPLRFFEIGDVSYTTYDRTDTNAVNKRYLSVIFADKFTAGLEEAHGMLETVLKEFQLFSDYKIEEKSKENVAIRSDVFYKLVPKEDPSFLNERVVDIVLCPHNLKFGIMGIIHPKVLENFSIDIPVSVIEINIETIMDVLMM
# T1 sequence (A5K9S0 whole entry): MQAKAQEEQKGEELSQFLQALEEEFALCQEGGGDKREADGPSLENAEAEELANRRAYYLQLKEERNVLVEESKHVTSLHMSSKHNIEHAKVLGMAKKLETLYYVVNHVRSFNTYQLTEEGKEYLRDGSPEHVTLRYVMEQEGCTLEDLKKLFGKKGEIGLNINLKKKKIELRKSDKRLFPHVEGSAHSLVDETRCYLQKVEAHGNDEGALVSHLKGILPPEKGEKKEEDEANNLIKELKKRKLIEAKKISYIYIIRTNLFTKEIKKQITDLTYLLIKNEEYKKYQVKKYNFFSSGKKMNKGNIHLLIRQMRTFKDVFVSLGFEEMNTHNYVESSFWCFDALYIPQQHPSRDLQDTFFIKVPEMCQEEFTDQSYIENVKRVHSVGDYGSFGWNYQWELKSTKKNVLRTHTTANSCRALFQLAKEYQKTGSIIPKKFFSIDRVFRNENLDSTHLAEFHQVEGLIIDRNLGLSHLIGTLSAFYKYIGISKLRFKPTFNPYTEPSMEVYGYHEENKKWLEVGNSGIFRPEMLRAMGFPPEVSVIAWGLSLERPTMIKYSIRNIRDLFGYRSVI
smiles,measurement,setting,value
COC[C@@H]1[C@H](c2ccc(C#Cc3ccccc3)cc2)[C@@H]2CN(C(=O)Nc3ccc(OC4CC4)cc3)C[C@@H](O)[C@@H](O)CN12 [BRD1389],% Parasite Growth,"[1]; 3D7, 0.000976562 ug/mL",93.5%
same,% Parasite Growth,"[1]; 3D7, 0.00195312 ug/mL",94.1%
same,% Parasite Growth,"[1]; 3D7, 0.00390625 ug/mL",94.0%
same,% Parasite Growth,"[1]; 3D7, 0.0078125 ug/mL",47.5%
same,% Parasite Growth,"[1]; 3D7, 0.015625 ug/mL",14.7%
same,% Parasite Growth,"[1]; 3D7, 0.03125 ug/mL",8.9%
same,% Parasite Growth,"[1]; 3D7, 0.0625 ug/mL",2.0%
same,% Parasite Growth,"[1]; 3D7, 0.125 ug/mL",1.8%
same,% Parasite Growth,"[1]; 3D7, 0.25 ug/mL",1.5%
same,% Parasite Growth,"[1]; 3D7, 0.5 ug/mL",1.7%
same,% Parasite Growth,"[1]; 3D7, 1 ug/mL",2.2%
same,IC50,"[1]; Plasmodium falciparum, 3D7",0.00753 µg/mL and 13.3 nM
same,EC50,"[1]; Plasmodium falciparum, 3D7, 72 h",13 nM
same,% Parasite Growth,"[2]; K1, 0.000976562 ug/mL",92.8%
same,% Parasite Growth,"[2]; K1, 0.00195312 ug/mL",94.4%
same,% Parasite Growth,"[2]; K1, 0.00390625 ug/mL",90.7%
same,% Parasite Growth,"[2]; K1, 0.0078125 ug/mL",40.5%
same,% Parasite Growth,"[2]; K1, 0.015625 ug/mL",14.2%
same,% Parasite Growth,"[2]; K1, 0.03125 ug/mL",15.9%
same,% Parasite Growth,"[2]; K1, 0.0625 ug/mL",4.7%
same,% Parasite Growth,"[2]; K1, 0.125 ug/mL",2.9%
same,% Parasite Growth,"[2]; K1, 0.25 ug/mL",2.1%
same,% Parasite Growth,"[2]; K1, 0.5 ug/mL",2.6%
same,% Parasite Growth,"[2]; K1, 1 ug/mL",2.6%
same,IC50,"[2]; Plasmodium falciparum, K1",0.00685 µg/mL and 12.1 nM
same,EC50,"[2]; Plasmodium falciparum, K1, 72 h",12 nM
same,Binding observed on co-incubation,PvcFRS,observed only binding of BRD1389
